Results: US7902219B2, “2-benzoylimidazopyridine derivatives, preparation and therapeutic use thereof” (Sanofi-Aventis, priority 2006, dated 2011)
pEC50: −log10 of the molar value.

Tests used:
human NOT receptor = test: Binding to the human NOT receptor by SPR (surface plasmon resonance, Biacore S51); details: immobilized GST-NOT (NOT-FL) and His-Thr-NOT 329-598, 3.75 to 0.1 μM, 4° C.
Protocol: Evaluation of the Binding to the Human NOT Receptor The direct binding between compounds of the invention and the human NOT receptor was evaluated using the SPR (surface plasmon resonance) technique. In this test, the protein is immobilized covalently on the matrix and the test molecule is injected into the chamber containing the sensor chip. The signal is directly proportional to the amount of product bound to the protein. The binding tests were performed in a Biacore S51 machine (Biacore Inc., Piscataway N.J.). The entire GST-NOT protein (NOT-FL) was supplied by Invitrogen (PV3265). The domain for binding to the NOT ligand (His-Thr-NOT 329-598) was expressed and purified as described in Nature 423, 555-560. The two proteins, diluted to a concentration of 20 μg/ml in pH 5.0 acetate buffer containing 5 mM of DTT, were immobilized on a surface of carboxymethyl 5′ dextran (CM5 sensor chip, Biacore Inc.) via amine coupling according to the protocol recommended by Biacore, eluting with an HBS-N buffer (10 mM HEPES, 0.15 M NaCl, 3 mM EDTA, pH 7.4). Approximately 10 000-15 000 resonance units (RU) of the proteins are captured on the surface of the sensor chip CM5. […] Each concentration of product is injected at 4° C. for 1 minute at 30 μl/min. The dissociation was recorded for 5 minutes without any other surface regeneration procedure. […]

murine Nurr1 receptor = target: T1, murine Nurr1 receptor (Mus musculus, UniProt Q06219); test: In vitro activity on N2A cells (NBRE-luciferase reporter); assay type: cell-based; details: N2A-8NBRE-luciferase cells, products incubated 24 hours
T1 construct: endogenously expressing the murine Nurr1 receptor; host or cells: Neuro-2A (N2A) mouse neuroblastoma cells stably transfected with 8NBRE-luciferase
T1 sequence (Q06219 whole entry): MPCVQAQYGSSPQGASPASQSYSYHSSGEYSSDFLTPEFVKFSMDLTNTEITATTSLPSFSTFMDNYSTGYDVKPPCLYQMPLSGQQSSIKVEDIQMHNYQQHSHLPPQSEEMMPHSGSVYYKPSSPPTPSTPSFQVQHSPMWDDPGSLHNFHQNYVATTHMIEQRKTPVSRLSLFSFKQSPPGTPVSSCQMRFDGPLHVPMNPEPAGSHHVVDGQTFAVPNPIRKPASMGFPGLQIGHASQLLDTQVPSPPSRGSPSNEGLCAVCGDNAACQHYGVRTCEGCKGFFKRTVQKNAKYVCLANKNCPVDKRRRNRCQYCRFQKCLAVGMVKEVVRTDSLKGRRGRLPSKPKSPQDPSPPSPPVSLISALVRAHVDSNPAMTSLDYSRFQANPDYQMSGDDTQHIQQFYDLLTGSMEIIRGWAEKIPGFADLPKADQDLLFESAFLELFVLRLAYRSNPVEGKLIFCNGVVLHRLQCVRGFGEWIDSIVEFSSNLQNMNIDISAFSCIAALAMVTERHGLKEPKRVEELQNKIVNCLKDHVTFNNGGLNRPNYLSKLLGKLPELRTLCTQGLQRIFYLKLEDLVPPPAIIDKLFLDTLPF
Protocol: Evaluation of the in vitro Activity on N2A Cells
The tests consisted in evaluating the in vitro activity of the compounds of the invention on a cell line (N2A) endogenously expressing the murine Nurr1 receptor and stably transfected with the NOT binding response element (NBRE) coupled to the luciferase reporter gene. The EC50 values are between 0.01 and 1000 nM. The tests were performed according to the procedure described hereinbelow.
The cell line Neuro-2A is obtained from a standard commercial source (ATCC). The clone Neuro-2A was obtained from a spontaneous tumor originating from a strain of albino mice A by R. J Klebe et al. This line Neuro-2A is then stably transfected with 8NBRE-luciferase. The N2A-8NBRE cells are cultured to the point of confluence in 75 cm^2 culture flasks containing DMEM supplemented with 10% fetal calf serum, 4.5 g/L of glucose and 0.4 mg/ml of geneticin. After culturing for one week, the cells are recovered with 0.25% trypsin for 30 seconds and then resuspended in DMEM without phenol red, containing 4.5 g/L of glucose and 10% Hyclone defatted serum, and placed in white, transparent-based 96-well plates. The cells are deposited at a rate of 60 000 per well in 75 μL for 24 hours before adding the products. The products are applied in 25 μL and incubated for a further 24 hours. On the day of measurement, an equivalent volume (100 μL) of Steadylite is added to each well, and the wells are then left for 30 minutes to obtain complete lysis of the cells and maximum production of the signal. The plates are then measured in a microplate luminescence counter, after having been sealed with an adhesive film. The products are prepared in the form of a 10^−2 M stock solution, and then diluted in 100% of DMSO. Each concentration of product is prediluted in culture medium before incubation with the cells thus containing 0.625% final of DMSO.

SMILES	affinity (classified by maximum binding level and kinetic parameters of binding to the immobilized protein) (human NOT receptor)	pEC50 (murine Nurr1 receptor)
Cc1ccc2nc(C(=O)c3ccccc3)cn2c1.Cl [Compound 1, (6-Methylimidazo[1,2-a]pyridin-2-yl)(phenyl)methanone hydrochloride (1:1)]	moderate affinity	9.52
O=C(c1ccccc1)c1cn2cc(-c3ccccc3)ccc2n1 [Compound 6, Phenyl(6-phenylimidazo[1,2-a]pyridin-2-yl)methanone]		10.70
Br.CC(C)(O)c1ccc2nc(C(=O)c3ccccc3)cn2c1 [Compound 3, [6-(1-Hydroxy-1-methylethyl)imidazo[1,2-a]pyridin-2-yl] (phenyl)-methanone hydrobromide (1:1)]	moderate affinity	9.70
